Laboratory results: patent publication US11702422B2, “Imidazopyridazines as modulators of IL-17” (Janssen Pharmaceutica NV, priority 2020, dated 2023)

How the values were obtained:
[1] = test system: IL-17A-induced G-CSF production in human normal keratinocyte (NHK); test: NHK Assay: IL-17A-induced G-CSF production in human normal keratinocytes; assay type: cell-based; details: adult normal human keratinocytes, IL-17A 5 ng/mL, 24 h, simple average if tested more than once
How it was run: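 Adult NHK, 3000-4000 cells/well; rhIL-17A + titrated cpd preincubated 1 h rt, then onto cells. Final: IL-17A 5 ng/mL, DMSO 0.2%, 5% FBS. 24 h, 37° C. G-CSF in supernatant by HTRF vs standard curve; IC50. Viability by CellTiter-Glo vs DMSO.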

[2] = biological target: IL-17A(FLAG-Tagged): IL-17RA(His-Tagged) (Homo sapiens, UniProt Q16552, K93Q); test: IL-17A(FLAG-Tagged): IL-17RA(His-Tagged) Binding Disruption Eu-HTRF Assay; details: IL-17A/IL-17RA binding disruption, simple average if tested more than once
How it was run: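 IC50 comes from a one-site competition fit of the HTRF 665/620 nm ratio. Compound dilutions (2-fold, 22 points) were held 1 h rt with FLAG-tagged IL-17A dimer, then His-tagged IL-17RA plus Eu-cryptate anti-FLAG and D2 anti-His antibodies were added for 2 h rt.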

Sequence of UniProt Q16552 (Q16552 with tags, fused parts or gaps K93Q): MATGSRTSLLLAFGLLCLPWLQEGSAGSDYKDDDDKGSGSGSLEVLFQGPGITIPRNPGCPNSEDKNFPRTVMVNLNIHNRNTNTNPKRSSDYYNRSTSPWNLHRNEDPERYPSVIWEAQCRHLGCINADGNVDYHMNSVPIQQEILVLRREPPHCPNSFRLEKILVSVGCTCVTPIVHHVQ

SMILES | IC50 [2] | IC50 [1] | IC50 ([1]; Homo sapiens, Keratinocyte)
O=C(CCC(F)(F)F)N[C@@H](c1cnn2cc([C@@H](NC(=O)c3nnn(CC4CC4)c3C(F)(F)F)C3CCC(F)(F)CC3)nc2c1)C1CC1 [Example 108, N—((S)-(7-((R)-Cyclopropyl(4,4,4-trifluorobutanamido)methyl)imidazo[1,2-b]pyridazin-2-yl)(4,4-difluorocyclohexyl)methyl)-1-(cyclopropylmethyl)-5-(trifluoromethyl)-1H-1,2,3-triazole-4-carboxamide] | 910 nM |  | > 20000 nM
COc1cncc(C(=O)N[C@H](c2cn3ncc([C@H](NC(=O)CCC(F)(F)F)C4CC4)cc3n2)C2CCC(F)(F)CC2)n1 [Example 215, N—((S)-(7-((R)-Cyclopropyl(4,4,4-trifluorobutanamido)methyl)imidazo[1,2-b]pyridazin-2-yl)(4,4-difluorocyclohexyl)methyl)-6-methoxypyrazine-2-carboxamide] | 2000 nM |  | > 20000 nM
N#CC1(C(NC(=O)CC2CC(F)(F)C2)c2cnn3cc([C@@H](NC(=O)c4nonc4C4CC4)C4CCC(F)(F)CC4)nc3c2)CC1 (single isomer, unassigned) [Example 429, N—((S)-(7-((R*)-(1-Cyanocyclopropyl)(2-(3,3-difluorocyclobutyl)acetamido)methyl)imidazo[1,2-b]pyridazin-2-yl)(4,4-difluorocyclohexyl)methyl)-4-cyclopropyl-1,2,5-oxadiazole-3-carboxamide] | 2000 nM | > 20000 nM | 
O=C(CCC(F)(F)F)N[C@@H](c1cnn2cc([C@@H](NC(=O)c3ccnc(C4CC4)n3)C3CCC(F)(F)CC3)nc2c1)C1CC1 [Example 216, 2-Cyclopropyl-N—((S)-(7-((R)-cyclopropyl(4,4,4-trifluorobutanamido)methyl)imidazo[1,2-b]pyridazin-2-yl)(4,4-difluorocyclohexyl)methyl)pyrimidine-4-carboxamide] | 1600 nM |  | > 20000 nM
Cc1nocc1C(=O)N[C@H](c1cn2ncc([C@H](NC(=O)CC(C)C(F)(F)F)C3CC3)cc2n1)C1CCC(F)(F)CC1 (single isomer, unassigned) [Example 124, N—((S)-(7-((R)-Cyclopropyl((S*)-4,4,4-trifluoro-3-methylbutanamido)methyl)imidazo[1,2-b]pyridazin-2-yl)(4,4-difluorocyclohexyl)methyl)-3-methylisoxazole-4-carboxamide] | 110 nM | 690 nM | 
O=C(CCC(F)(F)F)N[C@@H](c1cnn2cc([C@@H](NC(=O)c3cccc(OCC(F)F)n3)C3CCC(F)(F)CC3)nc2c1)C1CC1 [Example 201, N—((S)-(7-((R)-Cyclopropyl(4,4,4-trifluorobutanamido)methyl)imidazo[1,2-b]pyridazin-2-yl)(4,4-difluorocyclohexyl)methyl)-6-(2,2-difluoroethoxy)picolinamide] | 470 nM |  | 2200 nM
Cc1c(C(=O)N[C@H](c2cn3ncc(C(NC(=O)CC4CC(F)(F)C4)C4CC4)cc3n2)C2CCC(F)(F)CC2)cnn1CCC(F)(F)F (single isomer, unassigned) [Example 51, N—((S)-(7-((S*)-Cyclopropyl(2-(3,3-difluorocyclobutyl)acetamido)methyl)imidazo[1,2-b]pyridazin-2-yl)(4,4-difluorocyclohexyl)methyl)-5-methyl-1-(3,3,3-trifluoropropyl)-1H-pyrazole-4-carboxamide] | 12000 nM | ~18000 nM | 
CCc1cccc(C(=O)N[C@H](c2cn3ncc([C@H](NC(=O)CCC(F)(F)F)C4CC4)cc3n2)C2CCC(F)(F)CC2)n1 [Example 228, N—((S)-(7-((R)-Cyclopropyl(4,4,4-trifluorobutanamido)methyl)imidazo[1,2-b]pyridazin-2-yl)(4,4-difluorocyclohexyl)methyl)-6-ethylpicolinamide] | 1000 nM |  | > 20000 nM
O=C(CCC(F)F)N[C@@H](c1cnn2cc([C@@H](NC(=O)c3conc3COC(F)F)C3CCC(F)(F)CC3)nc2c1)C1CC1 [Example 287, N—((S)-(7-((R)-Cyclopropyl(4,4-difluorobutanamido)methyl)imidazo[1,2-b]pyridazin-2-yl)(4,4-difluorocyclohexyl)methyl)-3-((difluoromethoxy)methyl)isoxazole-4-carboxamide] | 140 nM |  | 410 nM

The remaining compounds from weak to strong by IC50 [2], led by results:

IC50 [2] | SMILES | IC50 [1] | IC50 ([1]; Homo sapiens, Keratinocyte)
110 nM | O=C(CCC(F)(F)F)N[C@@H](c1cnn2cc([C@@H](NC(=O)c3cnnn3CC3CC(F)(F)C3(F)F)C3CCC(F)(F)CC3)nc2c1)C1CC1 (stereo partly drawn) [Example 94, N—((S)-(7-((R)-Cyclopropyl(4,4,4-trifluorobutanamido)methyl)imidazo[1,2-b]pyridazin-2-yl)(4,4-difluorocyclohexyl)methyl)-1-((2,2,3,3-tetrafluorocyclobutyl)methyl)-1H-1,2,3-triazole-5-carboxamide] |  | 150 nM
100 nM | [2H]C([2H])([2H])n1nccc1C(=O)N[C@H](c1cn2ncc([C@H](NC(=O)C[C@H](C)C(F)(F)F)C3CCC3)cc2n1)C1CCC(F)(F)CC1 (relative stereo) [Example 503, N—((S)-(7-((R*)-Cyclobutyl((S*)-4,4,4-trifluoro-3-methylbutanamido)methyl)imidazo[1,2-]pyridazin-2-yl)(4,4-difluorocyclohexyl)methyl)-1-(methyl-d3)-1H-pyrazole-5-carboxamide] |  | 130 nM
87 nM | Cc1nonc1C(=O)N[C@H](c1cn2ncc([C@H](NC(=O)C[C@H]3C[C@@H](F)C3)C3CC3)cc2n1)C1CCC(F)(F)CC1 (single isomer, unassigned) [Example 267] |  | 350 nM
75 nM | CC(C)n1ncnc1C(=O)N[C@H](c1cn2ncc([C@H](NC(=O)CCC(F)(F)F)C3CC3)cc2n1)C1CCC(F)(F)CC1 [Example 483, N—[(S)-[7-[(R)-Cyclopropyl-(4,4,4-trifluorobutanamido)methyl]imidazo[1,2-b]pyridazin-2-yl]-(4,4-difluorocyclohexyl)methyl]-2-isopropyl-1,2,4-triazole-3-carboxamide] |  | 380 nM
69 nM | Cc1nonc1C(=O)N[C@H](c1cn2ncc([C@H](NC(=O)C(F)C3CCC3)C3CC3)cc2n1)C1CCC(F)(F)CC1 (single isomer, unassigned) [Example 348, N—((S)-(7-((R)-((R*)-2-Cyclobutyl-2-fluoroacetamido)(cyclopropyl)methyl)imidazo[1,2-b]pyridazin-2-yl)(4,4-difluorocyclohexyl)methyl)-4-methyl-1,2,5-oxadiazole-3-carboxamide] | 220 nM | 
44 nM | O=C(CCC(F)(F)F)N[C@@H](c1cnn2cc([C@@H](NC(=O)c3ccnc(OC4CC4)c3)C3CCC(F)(F)CC3)nc2c1)C1CC1 [Example 172, 2-Cyclopropoxy-N—((S)-(7-((R)-cyclopropyl(4,4,4-trifluorobutanamido)methyl)imidazo[1,2-b]pyridazin-2-yl)(4,4-difluorocyclohexyl)methyl)isonicotinamide] |  | 320 nM
41 nM | O=C(CCC(F)(F)F)N[C@@H](c1cnn2cc([C@@H](NC(=O)c3conc3C3CCC3)C3CCC(F)(F)CC3)nc2c1)C1CC1 [Example 474, 3-Cyclobutyl-N—((S)-(7-((R)-cyclopropyl(4,4,4-trifluorobutanamido)methyl)imidazo[1,2-b]pyridazin-2-yl)(4,4-difluorocyclohexyl)methyl)isoxazole-4-carboxamide] |  | 130 nM
